# Experimental data: US20090274691A1, “Use of CD25 binding molecules in steroid-resistant patients” (priority 2001, published 2009)
# “Also recorded” adds a separate entry of the source. Where two headings read alike, the source gives them in different places.
# What was measured:
# ulcerative colitis = conditions: chronically active, steroid-resistant or steroid-dependant ulcerative colitis; cited from earlier work
# steroid-resistant asthma = conditions: after 8 weeks; cited from earlier work
# [1] = tested on: PHA-stimulated lymphocytes; assay: Lymphocyte steroid sensitivity: dexamethasone inhibition of PHA-stimulated proliferation with and without basiliximab (Example 1); type: cell-based, human; conditions: for Steroid-sensitive (SS) or Steroid-resistant (SR): class by Imax with dexamethasone alone; for PHA-stimulated lymphocyte proliferation (cpm): dexamethasone 10^-6 mol/l; for PHA-stimulated lymphocyte proliferation (cpm) / % suppression / Imax (%): basiliximab 1 mg/l where added; for % suppression: dexamethasone 10^-7 mol/l; for Imax (%): inhibition of proliferation at dexamethasone 10^-6 mol/l
# Experimental: (§1) Measurement of lymphocyte steroid sensitivity: The sensitivity of peripheral blood lymphocytes to glucocorticoids is assessed in a functional assay i.e. an in vitro proliferation assay stimulated by phytohaemagglutinin (PHA) and inhibited by dexamethasone. (Hearing S D, et al. Gut 1999; 45:382-8; Hearing S D, et al. J Clin Endocrinol Metab 1999; 84:4149-54). Peripheral blood samples are collected at 09:00 hours, and peripheral blood mononuclear cells (PBMC) are separated by buoyancy centrifugation. Buoyancy centrifugation includes the separation of lymphocytes from the blood sample by centrifugation over a ficol gradient. Ficol allows red blood cells to fall through, but prevents the through-movement of lymphocytes. Peripheral blood mononuclear cells (lymphocytes and marocyes) are collected from the ficol/plasma interface. PBMC proliferation is stimulated with PHA and inhibited with dexamethasone at serial 10 fold dilutions between 10^−6 and 10^−10 mol/1. i.e. 10^−6, 10^−7, 10^−8, 10^−9, 10^−10 mol/1. Cell proliferation is measured by tritiated thymidine uptake i.e. after 2 days of incubation, radioisotape labelled thymidine (^3H-thymidine) is added to the lymphocyte culture medium and became incorporated into the DNA of proliferating lymphocyes. After 6 hours the cells are transferred from the incubator and collected on a filter mat using a cell harvester. The cells are then washed out of the well. The lymphocyte DNA that has incorporated the thymidine is trapped in the filter paper. When radioactivity levels are measured the wells which contain high numbers of actively proliferating lymphocytes (and thus will have incorporated lots of thymidine into the DNA) will have high radioactivity levels. […] The results are calculated as mean counts per minute (cpm) of triplicate cultures. Thymidine incorporation for each concentration of dexamethasone is compared to that of PHA stimulated T lymphocytes in the absence of dexamethasone, and expressed as a percentage of the uninhibited positive control. The effect of different concentrations of basiliximab on lymphocyte proliferation is also studied. In addition, an equal concentration of basiliximab is added to each cell culture medium at all concentrations of dexamethasone and the antiproliferative effect measured.
# Effect of […]® on steroid sensitivity: For all eight subjects, PHA-stimulated lymphocytes are cultured in the presence of increasing concentrations of dexamethasone (10^−10-10^−6 mol/l) in the presence and absence of basiliximab (1 mg/l). In previous studies of ulcerative colitis carried out by the inventor, maximal suppression (Imax)<60% correlated with a poor response to steroid therapy (clinical steroid resistance). The exact value of Imax cannot be measured as it is the inhibition at an infinitely high level of dexamethasone. Thus, the percentage inhibition of proliferation observed at the maximum dexamethasone concentration applied (10^−6 mol/l) is used as the measure of Imax. In practice, there is good agreement between Imax and the estimated asymptotic value for maximal inhibition obtained from dose-response curves (Hearing S D et al (1999) Clin. Endoctrinol. Metab 84:4149-54). A concentration of dexamethasone of 10^−7 mol/l is approximately equivalent in terms of glucocorticoid activity to the serum concentrations of hydrocortisone achieved with intravenous therapy at standard doses. Thus, to make comparisons with the potential effect of basiliximab in vivo, the steroid sensitising effect of basiliximab at this concentration of dexamethasone may also be of interest. […] The subjects are shown in decreasing order of steroid sensitivity (with the most sensitive on the left).
# [2] = tested on: phytohaemagglutinin stimulated lymphocytes; assay: Lymphocyte steroid sensitivity (Imax) with and without basiliximab, 32 subjects (Example 2); type: cell-based, human
# Experimental: Peripheral blood lymphocytes are isolated from 32 subjects (25 healthy volunteers and 7 patients with quiescent Ulcerative Colitis), on 41 occasions, using buoyant density centrifugation. Lymphocyte steroid sensitivity is assessed by measuring the antiproliferative effect of dexamethasone (DEX) on phytohaemagglutinin stimulated lymphocytes. Maximum steroid induced suppression is expressed as a % of control lymphocyte proliferation (Imax). Imax is measured in the absence and presence of basiliximab (1 mg/L).
# [3] = tested on: PHA stimulated peripheral blood lymphocytes; assay: PHA-induced lymphocyte proliferation (tritiated thymidine uptake), basiliximab in the absence of steroids; type: cell-based, human; conditions: for PHA-induced cell proliferation (cpm) / Inhibition (%): basiliximab 1 mg/l, absence of steroids; for Inhibition (%): vs PHA alone
# Experimental: as §1
# Effect of […]® on lymphocyte proliferation: Serum concentration of 0.2 mg/l of basiliximab produces >90% IL-2R occupancy. To test the antiproliferative in vitro effect of basiliximab, various concentrations of between 0.01 and 10 mg/l of basiliximab are incubated with lymphocytes in the absence of steroids. These assays confirm that an in vitro concentration of >0.1 to 0.3 mg/l basiliximab is required to produce the in vitro effect of basiliximab. For further studies on the same subjects, a concentration of 1 mg/l is used. In total, the same eight subjects are studied in each experiment. The effect of basiliximab at a concentration of 1 mg/l on PHA-induced cell proliferation in the absence of steroids is shown in Table 1
# IL-2R = biological target: T1, IL-2R (Homo sapiens, UniProt P01589); conditions: serum concentration of 0.2 mg/l; cited from earlier work
# T1 sequence (P01589 22-272): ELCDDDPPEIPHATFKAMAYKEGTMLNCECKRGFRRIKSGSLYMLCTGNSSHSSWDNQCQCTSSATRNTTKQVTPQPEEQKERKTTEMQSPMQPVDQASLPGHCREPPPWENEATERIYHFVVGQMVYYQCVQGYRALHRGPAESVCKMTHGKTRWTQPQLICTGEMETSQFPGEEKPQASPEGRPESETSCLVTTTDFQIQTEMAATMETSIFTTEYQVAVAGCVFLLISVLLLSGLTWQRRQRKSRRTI
# [4] = at the dosage levels employed; cited from earlier work
# [5] = tested on: peripheral blood lymphocytes; conditions: high concentrations of prednisolone, cited from earlier work
molecule,measurement,setting,value
Cn1cnc([N+](=O)[O-])c1Sc1ncnc2nc[nH]c12 [Azathioprine],delayed onset of action,ulcerative colitis,34 months
CN(Cc1cnc2nc(N)nc(N)c2n1)c1ccc(C(=O)N[C@@H](CCC(=O)O)C(=O)O)cc1 [methotrexate],bronchial muscosal inflammation,steroid-resistant asthma,reduced
same,lymphocyte steroid sensitivity,steroid-resistant asthma,increased
"C[C@@H]1C[C@H]2[C@@H]3CCC4=CC(=O)C=C[C@]4(C)[C@@]3(F)[C@@H](O)C[C@]2(C)[C@@]1(O)C(=O)CO [Dexamethasone, dexamethasone]",Steroid-sensitive (SS) or Steroid-resistant (SR),[1]; subject 1,SS (steroid-sensitive (Imax>60%; subjects 1-4))
same,PHA-stimulated lymphocyte proliferation (cpm),[1]; subject 1,3100 cpm
same,% suppression,[1]; subject 1,87%
same,Imax (%),[1]; subject 1,92%
same,Steroid-sensitive (SS) or Steroid-resistant (SR),[1]; subject 2,SS (steroid-sensitive (Imax>60%; subjects 1-4))
same,PHA-stimulated lymphocyte proliferation (cpm),[1]; subject 2,4109 cpm
same,% suppression,[1]; subject 2,79%
same,Imax (%),[1]; subject 2,84%
same,Steroid-sensitive (SS) or Steroid-resistant (SR),[1]; subject 3,SS (steroid-sensitive (Imax>60%; subjects 1-4))
same,PHA-stimulated lymphocyte proliferation (cpm),[1]; subject 3,9477 cpm
same,% suppression,[1]; subject 3,65%
same,Imax (%),[1]; subject 3,77%
same,Steroid-sensitive (SS) or Steroid-resistant (SR),[1]; subject 4,SS (steroid-sensitive (Imax>60%; subjects 1-4))
same,PHA-stimulated lymphocyte proliferation (cpm),[1]; subject 4,11568 cpm
same,% suppression,[1]; subject 4,42%
same,Imax (%),[1]; subject 4,64%
same,Steroid-sensitive (SS) or Steroid-resistant (SR),[1]; subject 5,SR (steroid-resistant (Imax<60%; subjects 5-8))
same,PHA-stimulated lymphocyte proliferation (cpm),[1]; subject 5,21685 cpm
same,% suppression,[1]; subject 5,20%
same,Imax (%),[1]; subject 5,52%
same,Steroid-sensitive (SS) or Steroid-resistant (SR),[1]; subject 6,SR (steroid-resistant (Imax<60%; subjects 5-8))
same,PHA-stimulated lymphocyte proliferation (cpm),[1]; subject 6,36495 cpm
same,% suppression,[1]; subject 6,32%
same,Imax (%),[1]; subject 6,45%
same,Steroid-sensitive (SS) or Steroid-resistant (SR),[1]; subject 7,SR (steroid-resistant (Imax<60%; subjects 5-8))
same,PHA-stimulated lymphocyte proliferation (cpm),[1]; subject 7,18669 cpm
same,% suppression,[1]; subject 7,29%
same,Imax (%),[1]; subject 7,35%
same,Steroid-sensitive (SS) or Steroid-resistant (SR),[1]; subject 8,SR (steroid-resistant (Imax<60%; subjects 5-8))
same,PHA-stimulated lymphocyte proliferation (cpm),[1]; subject 8,24681 cpm
same,% suppression,[1]; subject 8,36%
same,Imax (%),[1]; subject 8,33%
same,Median Imax (%),"[2]; 32 subjects on 41 occasions, basiliximab 1 mg/L where added",78.0%
basiliximab,Modulation of lymphocyte steroid sensitivity (LSS) of steroid-resistant subjects,"[1]; effect on Imax, subjects 5-8, basiliximab 1 mg/l",all become Steroid-sensitive
same,Enhancement of the anti-proliferative effect of DEX,"[2]; basiliximab 1 mg/L, Wilcoxon signed-rank test, p<0.0001",significantly enhanced; also recorded: marked in vitro steroid enhancing effect
same,Modulation of steroid-resistant subjects (Imax<60%) to steroid-sensitive,"[2]; in vitro, basiliximab 1 mg/L",All 8 steroid-resistant subjects (Imax<60%) are modulated (in vitro) to steroid-sensitive
same,in vitro concentration required to produce the in vitro (antiproliferative) effect,[3]; 0.01 to 10 mg/l incubated with lymphocytes in the absence of steroids,0.1 to 0.3 mg/L
same,PHA-induced cell proliferation (cpm),[3]; mean of 8 subjects,23943 cpm
same,Inhibition (%),[3]; mean of 8 subjects,37.8%
same,PHA-induced cell proliferation (cpm),[3]; subject 1,21827 cpm
same,Inhibition (%),[3]; subject 1,43.5%
same,PHA-induced cell proliferation (cpm),[3]; subject 2,15157 cpm
same,Inhibition (%),[3]; subject 2,39.9%
same,PHA-induced cell proliferation (cpm),[3]; subject 3,27239 cpm
same,Inhibition (%),[3]; subject 3,33.3%
same,PHA-induced cell proliferation (cpm),[3]; subject 4,27538 cpm
same,Inhibition (%),[3]; subject 4,15.4%
same,PHA-induced cell proliferation (cpm),[3]; subject 5,21446 cpm
same,Inhibition (%),[3]; subject 5,52.8%
same,PHA-induced cell proliferation (cpm),[3]; subject 6,35003 cpm
same,Inhibition (%),[3]; subject 6,47.1%
same,PHA-induced cell proliferation (cpm),[3]; subject 7,16122 cpm
same,Inhibition (%),[3]; subject 7,44.2%
same,PHA-induced cell proliferation (cpm),[3]; subject 8,27209 cpm
same,Inhibition (%),[3]; subject 8,26.4%
same,IL-2R occupancy,IL-2R,> 90%
same,Side-effects / safety of administration,[4],safe
daclizumab,Side-effects / safety of administration,[4],safe
C[C@]12C=CC(=O)C=C1CC[C@@H]1[C@@H]2[C@@H](O)C[C@@]2(C)[C@H]1CC[C@]2(O)C(=O)CO [prednisolone],percentage of apoptotic cells,[5]; lymphocytes of steroid-resistant SLE group,44.8%
same,percentage of apoptotic cells,[5]; lymphocytes of steroid-sensitive SLE group,68.8%
